Test results reported in ChEMBL document CHEMBL1139667, “Discovery and SAR study of novel dihydroquinoline containing glucocorticoid receptor ligands” (Bioorg Med Chem Lett, 2006).
Activity calls are given as the source filed them. The rule behind the calls is not given here.

How the values were obtained:
Glucocorticoid receptor [1] = molecular target: T1, Glucocorticoid receptor (Homo sapiens, UniProt P04150); experiment: Binding affinity to human GR
T1 sequence (P04150 whole entry): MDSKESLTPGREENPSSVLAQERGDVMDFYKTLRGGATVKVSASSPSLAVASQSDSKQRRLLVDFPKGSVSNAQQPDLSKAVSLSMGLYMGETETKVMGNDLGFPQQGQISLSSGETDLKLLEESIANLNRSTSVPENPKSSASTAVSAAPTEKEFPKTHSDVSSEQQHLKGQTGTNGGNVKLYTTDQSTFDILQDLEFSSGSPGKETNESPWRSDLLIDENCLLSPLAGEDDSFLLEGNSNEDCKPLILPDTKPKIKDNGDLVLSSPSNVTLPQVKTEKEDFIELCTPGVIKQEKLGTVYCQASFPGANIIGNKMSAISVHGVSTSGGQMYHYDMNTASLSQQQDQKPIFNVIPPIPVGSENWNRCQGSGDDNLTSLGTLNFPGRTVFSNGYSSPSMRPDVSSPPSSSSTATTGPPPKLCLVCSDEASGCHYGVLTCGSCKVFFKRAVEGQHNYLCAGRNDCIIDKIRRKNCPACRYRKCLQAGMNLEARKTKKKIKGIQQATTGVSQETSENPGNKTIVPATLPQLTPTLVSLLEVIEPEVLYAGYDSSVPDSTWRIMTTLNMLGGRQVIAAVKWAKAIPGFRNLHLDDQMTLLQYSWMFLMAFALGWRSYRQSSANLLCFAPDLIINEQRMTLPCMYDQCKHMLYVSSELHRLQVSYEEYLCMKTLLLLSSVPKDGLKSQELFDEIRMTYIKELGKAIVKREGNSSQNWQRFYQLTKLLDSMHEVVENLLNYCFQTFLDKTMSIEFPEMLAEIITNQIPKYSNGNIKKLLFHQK

Progesterone receptor = molecular target: T2, Progesterone receptor (Homo sapiens, UniProt P06401); experiment: Binding affinity to human PR
T2 sequence (P06401 whole entry): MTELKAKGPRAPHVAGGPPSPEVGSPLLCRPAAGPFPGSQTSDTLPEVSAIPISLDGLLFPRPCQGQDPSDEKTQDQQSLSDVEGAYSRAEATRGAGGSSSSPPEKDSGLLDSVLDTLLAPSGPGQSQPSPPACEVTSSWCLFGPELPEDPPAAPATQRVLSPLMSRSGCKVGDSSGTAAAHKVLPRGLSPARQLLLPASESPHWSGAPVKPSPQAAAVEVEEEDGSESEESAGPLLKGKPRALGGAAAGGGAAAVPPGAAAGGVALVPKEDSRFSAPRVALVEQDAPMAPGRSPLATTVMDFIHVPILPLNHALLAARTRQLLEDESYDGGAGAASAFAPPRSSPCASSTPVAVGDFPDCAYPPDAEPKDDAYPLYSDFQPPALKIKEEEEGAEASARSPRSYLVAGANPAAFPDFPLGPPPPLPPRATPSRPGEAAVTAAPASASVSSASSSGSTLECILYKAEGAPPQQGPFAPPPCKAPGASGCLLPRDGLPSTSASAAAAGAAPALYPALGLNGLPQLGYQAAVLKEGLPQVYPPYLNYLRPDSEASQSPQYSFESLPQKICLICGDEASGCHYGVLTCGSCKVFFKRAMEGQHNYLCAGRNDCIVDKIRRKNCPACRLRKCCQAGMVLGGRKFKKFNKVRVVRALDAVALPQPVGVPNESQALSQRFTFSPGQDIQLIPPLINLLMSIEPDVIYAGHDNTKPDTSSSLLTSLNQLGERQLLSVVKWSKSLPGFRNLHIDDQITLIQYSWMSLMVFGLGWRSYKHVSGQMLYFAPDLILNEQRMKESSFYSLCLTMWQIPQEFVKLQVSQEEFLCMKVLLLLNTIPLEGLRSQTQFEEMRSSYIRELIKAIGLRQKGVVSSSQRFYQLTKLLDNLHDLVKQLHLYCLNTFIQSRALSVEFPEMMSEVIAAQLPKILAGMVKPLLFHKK

Estrogen receptor = Estrogen receptor (Homo sapiens, UniProt Q92731+P03372); experiment: Binding affinity to human ER; format: protein assay
[2] = molecular target: T3, Mineralocorticoid receptor (Homo sapiens, UniProt P08235); experiment: Binding affinity to human MR
T3 sequence (P08235 whole entry): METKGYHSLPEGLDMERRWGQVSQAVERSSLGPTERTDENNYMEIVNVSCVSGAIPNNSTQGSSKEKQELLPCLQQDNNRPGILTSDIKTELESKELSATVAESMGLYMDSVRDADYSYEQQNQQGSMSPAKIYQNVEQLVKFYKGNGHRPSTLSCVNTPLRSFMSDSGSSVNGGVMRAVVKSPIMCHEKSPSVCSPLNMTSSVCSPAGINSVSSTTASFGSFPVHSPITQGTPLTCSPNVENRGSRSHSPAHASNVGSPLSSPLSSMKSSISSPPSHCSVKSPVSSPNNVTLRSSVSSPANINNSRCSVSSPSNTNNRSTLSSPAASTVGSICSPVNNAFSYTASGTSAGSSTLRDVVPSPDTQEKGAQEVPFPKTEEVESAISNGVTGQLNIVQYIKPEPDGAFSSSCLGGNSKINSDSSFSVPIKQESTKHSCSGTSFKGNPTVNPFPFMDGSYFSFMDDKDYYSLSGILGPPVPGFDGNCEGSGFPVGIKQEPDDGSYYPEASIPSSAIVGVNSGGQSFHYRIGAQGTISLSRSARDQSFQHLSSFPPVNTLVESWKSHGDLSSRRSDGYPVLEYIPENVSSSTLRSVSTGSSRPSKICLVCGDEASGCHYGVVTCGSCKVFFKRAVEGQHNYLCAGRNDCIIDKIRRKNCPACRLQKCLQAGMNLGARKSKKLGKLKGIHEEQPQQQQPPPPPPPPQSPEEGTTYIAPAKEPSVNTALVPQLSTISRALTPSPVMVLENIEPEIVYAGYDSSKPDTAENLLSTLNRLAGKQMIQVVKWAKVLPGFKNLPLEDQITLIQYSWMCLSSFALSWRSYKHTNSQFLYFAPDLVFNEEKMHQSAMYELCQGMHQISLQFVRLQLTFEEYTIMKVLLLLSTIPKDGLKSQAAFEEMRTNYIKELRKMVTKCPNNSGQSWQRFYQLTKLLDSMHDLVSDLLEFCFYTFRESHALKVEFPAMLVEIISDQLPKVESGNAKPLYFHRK

HFF = experiment: Inhibition of IL1-induced IL6 production in human foreskin fibroblast; format: functional, cell-based
Glucocorticoid receptor [3] = molecular target: T1, Glucocorticoid receptor; experiment: Inhibition of Dexamethasone induced GR transactivation of MMTV luciferase in HeLa cells; format: functional, cell-based

IC50 (Glucocorticoid receptor [1]) | IC50 (Progesterone receptor) | IC50 (Estrogen receptor) | IC50 [2] | IC50 (Glucocorticoid receptor [3]) | Compound | Activity (HFF)
> 2000 nM | > 2000 nM | – | – | – | C=CCOCC1=CC(C)(C)Nc2ccc(-c3ccccc3OC)cc21 | –
84 nM | > 2000 nM | > 2000 nM | > 2000 nM | 45 nM | COc1ccc(F)cc1-c1ccc2c(c1)C(CSCCc1ccccc1)=CC(C)(C)N2 | inactive
> 2000 nM | > 2000 nM | – | – | – | C=CCSCC1=CC(C)(C)Nc2ccc(-c3ccccc3[N+](=O)[O-])cc21 | –
703 nM | > 2000 nM | – | – | – | COc1ccccc1-c1ccc2c(c1)C(CSCCC(C)C)=CC(C)(C)N2 | –
> 2000 nM | > 2000 nM | – | – | – | C=CCSCC1=CC(C)(C)Nc2ccc(-c3ccccc3-c3ccccc3)cc21 | –
> 2000 nM | > 2000 nM | – | – | – | C=CCSCC1=CC(C)(C)Nc2ccc(-c3cccc(OCC)c3)cc21 | –
360 nM | 460 nM | – | – | – | C=CCSCC1=CC(C)(C)Nc2ccc(-c3ccccc3OC)cc21 | –
> 2000 nM | 620 nM | – | – | – | COc1ccccc1-c1ccc2c(c1)C(CSC(C)=O)=CC(C)(C)N2 | –
220 nM | 1400 nM | > 2000 nM | > 2000 nM | 260 nM | CC1(C)C=C(CSCCc2ccccc2)c2cc(-c3cccc(O)c3Cl)ccc2N1 | inactive
> 2000 nM | > 2000 nM | – | – | – | C=CCSCC1=CC(C)(C)Nc2ccc(-c3ccccc3OCC)cc21 | –
129 nM | 960 nM | – | – | – | C=CCSCC1=CC(C)(C)Nc2ccc(-c3cccc(O)c3Cl)cc21 | –
> 2000 nM | > 2000 nM | – | – | – | C=CCSCC1=CC(C)(C)Nc2ccc(-c3ccccc3)cc21 | –
1020 nM | 1600 nM | – | – | – | CCCSCC1=CC(C)(C)Nc2ccc(-c3ccccc3OC)cc21 | –
> 2000 nM | > 2000 nM | – | – | – | C=CCSCC1=CC(C)(C)Nc2ccc(-c3ccccc3C)cc21 | –
> 2000 nM | > 2000 nM | – | – | – | C=CCNCC1=CC(C)(C)Nc2ccc(-c3ccccc3OC)cc21 | –
194 nM | > 2000 nM | – | – | – | COc1ccccc1-c1ccc2c(c1)C(CSCCc1ccccc1)=CC(C)(C)N2 | –
1000 nM | 460 nM | – | – | – | C=CCSCC1=CC(C)(C)Nc2ccc(-c3cccc(OC)c3)cc21 | –
804 nM | > 2000 nM | – | – | – | COc1ccccc1-c1ccc2c(c1)C(CSc1ccccc1)=CC(C)(C)N2 | –
> 2000 nM | 660 nM | – | – | – | COc1ccccc1-c1ccc2c(c1)C(CSCc1ccccc1)=CC(C)(C)N2 | –
> 2000 nM | > 2000 nM | – | – | – | C=CCSCC1=CC(C)(C)Nc2ccc(-c3ccc(OC)cc3)cc21 | –
> 2000 nM | > 2000 nM | – | – | – | CNC(=O)CSCC1=CC(C)(C)Nc2ccc(-c3ccccc3OC)cc21 | –
> 2000 nM | > 2000 nM | – | – | – | C=CCSCC1=CC(C)(C)Nc2ccc(-c3cc(OC)ccc3OC)cc21 | –
> 2000 nM | > 2000 nM | – | – | – | COC(=O)CSCC1=CC(C)(C)Nc2ccc(-c3ccccc3OC)cc21 | –
303 nM | > 2000 nM | – | – | – | CCC(C)CSCC1=CC(C)(C)Nc2ccc(-c3ccccc3OC)cc21 (centres undefined) | –
190 nM | 1400 nM | – | – | – | C=CCSCC1=CC(C)(C)Nc2ccc(-c3cc(F)ccc3OC)cc21 | –
> 2000 nM | > 2000 nM | – | – | – | COc1ccccc1-c1ccc2c(c1)C(C)=CC(C)(C)N2 | –
> 2000 nM | > 2000 nM | – | – | – | C=CCSCC1=CC(C)(C)Nc2ccc(-c3ccccc3C(F)(F)F)cc21 | –
> 2000 nM | > 2000 nM | – | – | – | C=CCSCC1=CC(C)(C)Nc2ccc(-c3c(OC)cccc3OC)cc21 | –
> 2000 nM | 360 nM | – | – | – | C=CCSCC1=CC(C)(C)Nc2ccc(-c3ccccc3F)cc21 | –
> 2000 nM | > 2000 nM | – | – | – | C=CCSCC1=CC(C)(C)Nc2ccc(-c3cccc(OC)c3OC)cc21 | –

Compound | IC50 (Glucocorticoid receptor [1]) | IC50 (Progesterone receptor) | IC50 (Estrogen receptor) | IC50 [2] | IC50 (Glucocorticoid receptor [3]) | Activity (HFF)
COc1ccccc1-c1ccc2c(c1)C(CSC1CCCCC1)=CC(C)(C)N2 | 371 nM | > 2000 nM | – | – | – | –
COc1ccccc1-c1ccc2c(c1)C(CSC1CCCC1)=CC(C)(C)N2 | 548 nM | > 2000 nM | – | – | – | –
COc1ccccc1-c1ccc2c(c1)C(CSc1ccc(Cl)cc1)=CC(C)(C)N2 | 800 nM | > 2000 nM | – | – | – | –
